“And” between values parts separate entries of the source, which are not always exact repeats. Equal values may be shown once.
Tested on: T. cruzi (Tulahuen strain) infective form co-cultured in NIH-3T3 fibroblasts
Experiment: In vitro T. cruzi biological assay (β-galactosidase/CPRG)
Type: cell-based, Trypanosoma cruzi
Settings: Trypanosoma cruzi, TULAHUEN, NIH3T3, 96 h, Tulahuen strain infective form growth inhibition co-cultured in NIH-3T3 fibroblasts; 4 days; N = 3
Method: General methods for the preparation of in vitro cell cultures involving T. cruzi parasites and mammalian cells along with the exposure to inhibitors has previously been described by Andriani and colleagues. T. cruzi (Tulahuen strain) that expresses β-galactosidase was harvested by centrifugation at 2500 rpm for 7 min. Parasites were rinsed twice with DMEM lacking phenol red and supplemented with 2% fetal bovine serum (FBS) and 1% penicillin—streptomycin—L-glutamine (PSG); the final concentrations of the PSG components were 100 U/mL penicillin, 0.1 mg/mL streptomycin, and 0.292 mg/mL L-glutamine. It was necessary to exclude phenol red since it interferes with the absorbance reading at λ = 590 nm. The parasites were centrifuged again for 7 min at 2500 rpm and the 50 mL tubes were carefully removed from the centrifuge. The tubes were placed on a rack with an incubator so that the trypomastigotes would move out of the pellet in a timeframe of 3–5 h. During this period, 100 μL of NIH-3T3 cells (50,000 cells) were plated per well in a transparent, clear, flat-bottom, and sterile 96-well microplate. This plate was placed in an incubator for 3 h at 37 °C to allow the cells to attach. The 3-nitro-2-phenyl-2H-chromene compounds (inhibitors) that were prepared as 10.0 mM stock solutions in 100% DMSO were thawed from −80 °C to room temperature. The compound solutions were diluted to their desired working concentrations, which ranged from 0.0781–10.0 μM. This was accomplished by serial dilution using a 2-fold dilution. A total of 100 μL of parasites was added to each well, which contained 50,000 trypomastigotes, and were incubated for 4 days. Using a multichannel pipette, 50.0 μL of the substrate solution [500 μM CPRG in phosphate buffered saline supplemented with 0.5% detergent NP-40] was added to each well of the 96-well microplate. The plate was placed into an incubator for 4 h followed by measuring absorbance readings at λ = 590 nm using a Victor Nivo multimode microplate reader (PerkinElmer, Inc.; Shelton, CT, USA). All measurements were performed in triplicate; absorbance values were proportional to parasite cell viability. IC50 determinations for percent growth inhibition were processed using GraphPad Prism 10.0. Amphotericin B was used as a positive control, the final solution concentration of which was 4.0 μM (prepared as a 270 μM stock solution). Four control conditions were carried out, as follows: (a) NIH-3T3 cells and parasites, (b) NIH-3T3 cells without parasites, (c) NIH-3T3 cells, parasites, and 4.0 μM amphotericin B, and (d) the medium alone.
Work on `CCOc1ccc(C2Oc3ccc(Br)cc3C=C2[N+](=O)[O-])cc1OC` (stereo not shown) [Compound 1, 6-Bromo-2-(4-ethoxy-3-methoxyphenyl)-3-nitro-2H -chromene] yielded an IC50 of under 2 µM.
With `CCOc1ccc(C2Oc3ccc(Br)cc3C=C2[N+](=O)[O-])cc1OCC` (stereo not shown) [Compound 2, 6-Bromo-2-(3,4-diethoxyphenyl)-3-nitro-2H -chromene] the IC50 was 1.44 ± 0.07 µM.
With `COc1ccc(C2Oc3c(cc(Br)cc3OC)C=C2[N+](=O)[O-])cc1OC` (stereo not shown) [Compound 3, 6-Bromo-2-(3,4-dimethoxyphenyl)-8-methoxy-3-nitro-2H -chromene] the IC50 was 0.96 ± 0.02 µM.
`COc1ccc(C2Oc3ccc(Br)cc3C=C2[N+](=O)[O-])cc1OC` (stereo not shown) [Compound 4, 6-Bromo-2-(3,4-dimethoxyphenyl)-3-nitro-2H -chromene] showed an IC50 of under 2 µM.
For `COc1ccc(C2Oc3c(Br)cc(Br)cc3C=C2[N+](=O)[O-])cc1OC` (stereo not shown) [Compound 5, 6,8-Dibromo-2-(3,4-dimethoxyphenyl)-3-nitro-2H -chromene], the IC50 was 0.64 ± 0.23 µM.
In the case of `CCOc1ccc(C2Oc3c(Br)cc(Br)cc3C=C2[N+](=O)[O-])cc1OC` (stereo not shown) [Compound 6, 6,8-Dibromo-2-(4-ethoxy-3-methoxyphenyl)-3-nitro-2H -chromene], the IC50 is reported as at least 2 µM.
In the case of `O=[N+]([O-])C1=Cc2cc(Br)cc(Br)c2OC1c1c(Cl)cccc1Cl` (stereo not shown) [Compound 7, 2-(2,6-Dichlorophenyl)-6,8-dibromo-3-nitro-2H -chromene], the IC50 is reported as 0.64 ± 0.02 µM.
Compound `CCOc1ccc(C2Oc3c(cc(Br)cc3OC)C=C2[N+](=O)[O-])cc1OC` (stereo not shown) [Compound 8, 6-Bromo-2-(4-ethoxy-3-methoxyphenyl)-8-methoxy-3-nitro-2H -chromene] has an IC50 of 1.85 ± 0.15 µM.
`CCOc1ccc(C2Oc3ccccc3C=C2[N+](=O)[O-])cc1OCC` (stereo not shown) [Compound 10, 2-(3,4-Diethoxyphenyl)-3-nitro-2H -chromene] showed an IC50 of 2.56 ± 0.26 µM.
With `O=[N+]([O-])C1=Cc2ccccc2OC1c1c(Cl)cccc1Cl` (stereo not shown) [Compound 13, 2-(2,6-Dichlorophenyl)-3-nitro-2H -chromene] the IC50 was 3.08 ± 0.08 µM.

Same assay, conditions: Tulahuen strain infective form growth inhibition co-cultured in NIH-3T3 fibroblasts; 4 days; N = 3
Compound `CCOc1ccc(C2Oc3ccc(Br)cc3C=C2[N+](=O)[O-])cc1OC` (stereo not shown) [Compound 1, 6-Bromo-2-(4-ethoxy-3-methoxyphenyl)-3-nitro-2H -chromene] has an IC50 of 1.49 ± 0.07 µM.
With `COc1ccc(C2Oc3ccc(Br)cc3C=C2[N+](=O)[O-])cc1OC` (stereo not shown) [Compound 4, 6-Bromo-2-(3,4-dimethoxyphenyl)-3-nitro-2H -chromene] the IC50 was 1.31 ± 0.15 µM.
Work on `CCOc1ccc(C2Oc3c(Br)cc(Br)cc3C=C2[N+](=O)[O-])cc1OC` (stereo not shown) [Compound 6, 6,8-Dibromo-2-(4-ethoxy-3-methoxyphenyl)-3-nitro-2H -chromene] yielded an IC50 of 2.56 ± 0.26 µM.

Same assay, conditions: efficacy in IC50
For `O=[N+]([O-])C1=Cc2cc(Br)cc(Br)c2OC1c1c(Cl)cccc1Cl` (stereo not shown) [Compound 7, 2-(2,6-Dichlorophenyl)-6,8-dibromo-3-nitro-2H -chromene], the “T. cruzi growth inhibition (in words)” value was “nanomolar efficacy”.
For `O=[N+]([O-])C1=Cc2cc(Br)ccc2OC1c1ccccc1Cl` (stereo not shown) [Compound 11, 6-Bromo-2-(2-chlorophenyl)-3-nitro-2H -chromene], the “T. cruzi growth inhibition (in words)” value was “nanomolar efficacy”.

Tested on: NIH-3T3 fibroblasts
Experiment: In vitro cytotoxicity assay of mammalian NIH-3T3 fibroblasts (Alamar blue)
Type: cell-based
Settings: NIH-3T3 fibroblast growth inhibition, host cell toxicity; 4 days; N = 3
Method: The in vitro cell culturing of mammalian NIH-3T3 fibroblasts following treatment with inhibitors to assess for cytotoxicity has previously been described. DMEM lacking phenol red and supplemented with 2% FBS and 1% PSG was warmed up. NIH-3T3 cells were trypsinized, as described in the cell culture protocol. When cells became detached, they were harvested in DMEM lacking phenol red and including 2% FBS and 1% PSG. The cells were centrifuged at 1000 rpm for 5 min, the medium was discarded, and the cells were resuspended in fresh DMEM lacking phenol red and including 2% FBS and 1% PSG. The cells were centrifuged at 1000 rpm for 5 min, resuspended in the medium, counted, and diluted to 500,000 cells/mL. Dilution was accomplished by transferring the stock number of cells into a sterile basin and 100 μL of cells was added to each well of a transparent, sterile, flat-bottom, 96-well microplate (50,000 cells/well) using a multichannel pipette. The plate was placed into the incubator for 3 h to allow cells to attach. The 3-nitro-2-phenyl-2H-chromene compounds were thawed from −80 °C to room temperature. The compounds were prepared as 10.0 mM stock solutions in 100% DMSO. A volume of 2.0 μL of a given compound plus a volume of 98.0 μL of fresh media were both added to a well in the first row of the 96-well microplate; this was performed for each compound to be tested. The solutions were mixed with a micropipette, followed by the transfer of 100 μL to the next row and repeated. The compound solutions ranged from 0.0139–30.3 μM and this was accomplished by serial dilution using a 3-fold dilution. After incubation for 4 days, 10.0 μL of Alamar blue was added to each well. Absorbance readings were measured using a Victor Nivo multimode microplate reader (PerkinElmer, Inc.; Shelton, CT, USA) at λ = 590 nm. All measurements were performed in triplicate and TC50 determinations for percent growth inhibition were carried out using GraphPad Prism 10.0. The final volume per well of cells and a given compound was 100 μL and this volume became 110 μL after the addition of Alamar blue. The detergent SDS was used as a positive control and its final solution concentration was 0.1%. Three controls were carried out, as follows: (a) NIH-3T3 cells alone, (b) perished NIH-3T3 cells (NIH-3T3 cells in the presence of 0.1% SDS), and (c) the medium alone.
For `CCOc1ccc(C2Oc3ccc(Br)cc3C=C2[N+](=O)[O-])cc1OC` (stereo not shown) [Compound 1, 6-Bromo-2-(4-ethoxy-3-methoxyphenyl)-3-nitro-2H -chromene], the “NIH-3T3 TC50” value was 16.0 ± 1.84 µM.
With `COc1ccc(C2Oc3c(cc(Br)cc3OC)C=C2[N+](=O)[O-])cc1OC` (stereo not shown) [Compound 3, 6-Bromo-2-(3,4-dimethoxyphenyl)-8-methoxy-3-nitro-2H -chromene] the “NIH-3T3 TC50” value was 17.5 ± 1.90 µM.
For `COc1ccc(C2Oc3ccc(Br)cc3C=C2[N+](=O)[O-])cc1OC` (stereo not shown) [Compound 4, 6-Bromo-2-(3,4-dimethoxyphenyl)-3-nitro-2H -chromene], the “NIH-3T3 TC50” value was 16.4 ± 1.91 µM.
In the case of `CCOc1ccc(C2Oc3c(Br)cc(Br)cc3C=C2[N+](=O)[O-])cc1OC` (stereo not shown) [Compound 6, 6,8-Dibromo-2-(4-ethoxy-3-methoxyphenyl)-3-nitro-2H -chromene], the “NIH-3T3 TC50” value is reported as 18.1 ± 0.24 µM.
For `O=[N+]([O-])C1=Cc2cc(Br)cc(Br)c2OC1c1c(Cl)cccc1Cl` (stereo not shown) [Compound 7, 2-(2,6-Dichlorophenyl)-6,8-dibromo-3-nitro-2H -chromene], the “NIH-3T3 TC50” value was 11.9 ± 0.51 µM.
With `CCOc1ccc(C2Oc3c(Cl)cc(Cl)cc3C=C2[N+](=O)[O-])cc1OCC` (stereo not shown) [Compound 9, 6,8-Dichloro-2-(3,4-diethoxyphenyl)-3-nitro-2H -chromene] the “NIH-3T3 TC50” value was 17.5 ± 1.60 µM.
With `CCOc1ccc(C2Oc3ccccc3C=C2[N+](=O)[O-])cc1OCC` (stereo not shown) [Compound 10, 2-(3,4-Diethoxyphenyl)-3-nitro-2H -chromene] the “NIH-3T3 TC50” value was 9.45 ± 2.20 µM.
In the case of `O=[N+]([O-])C1=Cc2cc(Br)ccc2OC1c1ccccc1Cl` (stereo not shown) [Compound 11, 6-Bromo-2-(2-chlorophenyl)-3-nitro-2H -chromene], the “NIH-3T3 TC50” value is reported as 4.12 µM and 4.12 ± 1.95 µM.

Tested on: TcGlcK
Experiment: not given
Parameters: method as in PMID 31133533
Settings: earlier HTS campaign of 13,040 compounds; cited from earlier work
For `CCOc1ccc(C2Oc3ccc(Br)cc3C=C2[N+](=O)[O-])cc1OC` (stereo not shown) [Compound 1, 6-Bromo-2-(4-ethoxy-3-methoxyphenyl)-3-nitro-2H -chromene], the IC50 is given as 6.1 µM.
In the case of `CCOc1ccc(C2Oc3c(Cl)cc(Cl)cc3C=C2[N+](=O)[O-])cc1OCC` (stereo not shown) [Compound 9, 6,8-Dichloro-2-(3,4-diethoxyphenyl)-3-nitro-2H -chromene], the IC50 is listed as 4.8 µM.

Source: article PMC11050443, “Discovery of Strong 3-Nitro-2-Phenyl-2H-Chromene Analogues as Antitrypanosomal Agents and Inhibitors of Trypanosoma cruzi Glucokinase” (International Journal of Molecular Sciences, 2024)
